Assay results reported in ChEMBL document CHEMBL5260810, “Inhibition of bromodomain-containing protein 9 for the prevention of epigenetically-defined drug resistance” (Bioorg Med Chem Lett, 2017).
pIC50: −log10 of the molar value.

Columns and labels:
Assay type in all cases: functional, cell-based
[1] = system: KU812 cell line; assay: Cytotoxicity against human KU812 cell line measured after 8 days; conditions: KU812, 192 h
[2] = Cytotoxicity against human Karpas-620 cells measured after 8 days; conditions: Karpas-620, 192 h
[3] = system: TMD8; assay: Cytotoxicity against human TMD8 cells measured after 8 days; conditions: TMD8, 192 h
[4] = system: A 172; assay: Cytotoxicity against human A-172 cells measured after 8 days; conditions: A 172, 192 h
[5] = system: AM-38; assay: Cytotoxicity against human AM-38 cells measured after 8 days; conditions: AM-38, 192 h
[6] = system: SCLC-21H; assay: Cytotoxicity against human SCLC-21H cells measured after 8 days; conditions: 192 h
[7] = Cytotoxicity against human NCE-G 121 cells measured after 8 days; conditions: NCE-G 121, 192 h
[8] = Cytotoxicity against human NCE-G 124 cells measured after 8 days; conditions: NCE-G 124, 192 h
[9] = system: KALS-1; assay: Cytotoxicity against human KALS-1 cells measured after 8 days; conditions: KALS-1, 192 h
[10] = system: SK-N-DZ; assay: Cytotoxicity against human SK-N-DZ cells measured after 8 days; conditions: 192 h
[11] = system: SK-N-FI; assay: Cytotoxicity against human SK-N-FI cells measured after 8 days; conditions: 192 h
[12] = system: SU-DHL-5; assay: Cytotoxicity against human SU-DHL-5 cells measured after 8 days; conditions: SU-DHL-5, 192 h
[13] = Cytotoxicity against human SM1 cells measured after 8 days; conditions: SM1, 192 h
[14] = Cytotoxicity against human COV504 cells measured after 8 days; conditions: COV504, 192 h
[15] = system: EFO-27; assay: Cytotoxicity against human EFO-27 cells measured after 8 days; conditions: EFO-27, 192 h
[16] = system: ES-2; assay: Cytotoxicity against human ES2 cells measured after 8 days; conditions: ES-2, 192 h
[17] = Cytotoxicity against human Hs 38.T cells measured after 8 days; conditions: 192 h
[18] = Cytotoxicity against human ONCO-DG-1 cells measured after 8 days; conditions: ONCO-DG-1, 192 h
[19] = Cytotoxicity against human OVCA 420 cells measured after 8 days; conditions: OVCA 420, 192 h
[20] = Cytotoxicity against mouse JC cells measured after 8 days; conditions: 192 h
[21] = system: MCF-10A; assay: Cytotoxicity against human MCF-10A cells measured after 8 days; conditions: 192 h
[22] = system: MDA-MB-453; assay: Cytotoxicity against human MDA-MB-453 cells measured after 8 days; conditions: MDA-MB-453, 192 h
[23] = Cytotoxicity against human RKN cells measured after 8 days; conditions: 192 h
[24] = Cytotoxicity against human RMUG-S cells measured after 8 days; conditions: 192 h
[25] = system: CAPAN-1; assay: Cytotoxicity against human CAPAN-1 cells measured after 8 days; conditions: CAPAN-1, 192 h
[26] = system: HuP-T3; assay: Cytotoxicity against human HuP-T3 cells measured after 8 days; conditions: HuP-T3, 192 h
[27] = system: C-33-A; assay: Cytotoxicity against human C-33-A cells measured after 8 days; conditions: 192 h
[28] = Cytotoxicity against human HCSC-1 cells measured after 8 days; conditions: HCSC-1, 192 h
[29] = system: SKG-IIIa; assay: Cytotoxicity against human SKG-IIIa cells measured after 8 days; conditions: 192 h
[30] = system: HuP-T4; assay: Cytotoxicity against human HuP-T4 cells measured after 8 days; conditions: HuP-T4, 192 h
[31] = Cytotoxicity against human KP-3L cells measured after 8 days; conditions: 192 h
[32] = Cytotoxicity against human KPP14449 cells measured after 8 days; conditions: KPP14449, 192 h
[33] = Cytotoxicity against human KR7251 cells measured after 8 days; conditions: KR7251, 192 h
[34] = Cytotoxicity against human PaTu 8902 cells measured after 8 days; conditions: PaTu 8902, 192 h
[35] = Cytotoxicity against human 51BLim 10 cells measured after 8 days; conditions: 51BLim 10, 192 h
[36] = system: C170; assay: Cytotoxicity against human C170 cells measured after 8 days; conditions: C170, 192 h
[37] = system: C2BBe1; assay: Cytotoxicity against human C2BBe1 cells measured after 8 days; conditions: C2BBe1, 192 h
[38] = Cytotoxicity against human CoCM-1 cells measured after 8 days; conditions: CoCM-1, 192 h
[39] = system: SU-DHL10; assay: Cytotoxicity against human SU-DHL-10 cells measured after 8 days; conditions: SU-DHL10, 192 h
[40] = Cytotoxicity against mouse TRAMP-C1 cells measured after 8 days; conditions: TRAMP-C1, 192 h
[41] = Cytotoxicity against human HCC1623 cells measured after 8 days; conditions: HCC1623, 192 h
[42] = system: SK-CO-1; assay: Cytotoxicity against human SK-CO-1 cells measured after 8 days; conditions: SK-CO-1, 192 h
[43] = system: A2058; assay: Cytotoxicity against human A2058 cells measured after 8 days; conditions: A2058, 192 h
[44] = system: KYSE-150 cell line; assay: Cytotoxicity against human KYSE-150 cell line measured after 8 days; conditions: KYSE-150, 192 h
[45] = system: KYSE-510; assay: Cytotoxicity against human KYSE-510 cells measured after 8 days; conditions: KYSE-510, 192 h
[46] = system: COLO-800; assay: Cytotoxicity against human COLO-800 cells measured after 8 days; conditions: COLO-800, 192 h
[47] = Cytotoxicity against human COLO 818 cells measured after 8 days; conditions: COLO 818, 192 h
[48] = Cytotoxicity against human DEOC-1 cells measured after 8 days; conditions: DEOC-1, 192 h
[49] = Cytotoxicity against human FA9JTOTERT cells measured after 8 days; conditions: 192 h
[50] = system: HMV-2 cell line; assay: Cytotoxicity against human HMV-2 cell line measured after 8 days; conditions: HMV-2, 192 h
[51] = system: 786-0; assay: Cytotoxicity against human 786-0 cells measured after 8 days; conditions: 786-0, 192 h
[52] = Cytotoxicity against human VMRC-RCW cells measured after 8 days; conditions: 192 h
[53] = system: MeWo; assay: Cytotoxicity against human MeWo cells measured after 8 days; conditions: 192 h
[54] = system: SK-MEL-30; assay: Cytotoxicity against human SK-MEL-30 cells measured after 8 days; conditions: SK-MEL-30, 192 h
[55] = system: HuCCT-1; assay: Cytotoxicity against human HuCCT-1 cells measured after 8 days; conditions: HuCCT-1, 192 h
[56] = system: MKN-74; assay: Cytotoxicity against human MKN-74 cells measured after 8 days; conditions: MKN-74, 192 h
[57] = system: NCI-N87; assay: Cytotoxicity against human NCI-N87 cells measured after 8 days; conditions: NCI-N87, 192 h
[58] = system: COR-L88; assay: Cytotoxicity against human COR-L88 cells measured after 8 days; conditions: COR-L88, 192 h
[59] = Cytotoxicity against human HCC15 cells measured after 8 days; conditions: HCC15, 192 h
[60] = system: HT-1080; assay: Cytotoxicity against human HT-1080 cells measured after 8 days; conditions: HT-1080, 192 h
[61] = Cytotoxicity against human HEC-6 cells measured after 8 days; conditions: HEC-6, 192 h
[62] = system: Ishikawa; assay: Cytotoxicity against human Ishikawa cells measured after 8 days; conditions: 192 h

Structure (SMILES): C/C=C/Cn1cc(-c2ccc(C(C)(C)O)cc2OC)c2cc[nH]c2c1=O
- pIC50 [1]: 4.70
- pIC50 [2]: 4.70
- pIC50 [3]: 4.70
- pIC50 [4]: 4.70
- pIC50 [5]: 4.70
- pIC50 [6]: 4.70
- pIC50 [7]: 4.70
- pIC50 [8]: 4.70
- pIC50 [9]: 4.70
- pIC50 [10]: 4.73
- pIC50 [11]: 4.70
- pIC50 [12]: 4.99
- pIC50 [13]: 4.95
- pIC50 [14]: 4.70
- pIC50 [15]: 4.70
- pIC50 [16]: 4.70
- pIC50 [17]: 4.70
- pIC50 [18]: 4.70
- pIC50 [19]: 4.70
- pIC50 [20]: 4.70
- pIC50 [21]: 4.94
- pIC50 [22]: 4.70
- pIC50 [23]: 4.70
- pIC50 [24]: 4.70
- pIC50 [25]: 4.70
- pIC50 [26]: 4.85
- pIC50 [27]: 4.70
- pIC50 [28]: 4.70
- pIC50 [29]: 4.70
- pIC50 [30]: 4.70
- pIC50 [31]: 4.70
- pIC50 [32]: 4.70
- pIC50 [33]: 4.70
- pIC50 [34]: 4.70
- pIC50 [35]: 4.70
- pIC50 [36]: 4.70
- pIC50 [37]: 4.70
- pIC50 [38]: 4.70
- pIC50 [39]: 4.96
- pIC50 [40]: 4.70
- pIC50 [41]: 4.70
- pIC50 [42]: 4.70
- pIC50 [43]: 4.70
- pIC50 [44]: 4.70
- pIC50 [45]: 4.70
- pIC50 [46]: 4.70
- pIC50 [47]: 4.70
- pIC50 [48]: 4.70
- pIC50 [49]: 4.70
- pIC50 [50]: 4.70
- pIC50 [51]: 4.70
- pIC50 [52]: 4.70
- pIC50 [53]: 4.70
- pIC50 [54]: 4.70
- pIC50 [55]: 4.70
- pIC50 [56]: 4.70
- pIC50 [57]: 4.70
- pIC50 [58]: 4.70
- pIC50 [59]: 4.70
- pIC50 [60]: 4.70
- pIC50 [61]: 4.70
- pIC50 [62]: 4.70

Structure (SMILES): C/C=C/Cn1cc(-c2ccc(C(=O)N3CCOCC3)cc2)c2cc[nH]c2c1=O
- pIC50 [1]: 4.70
- pIC50 [2]: 4.70
- pIC50 [3]: 4.70
- pIC50 [4]: 4.70
- pIC50 [5]: 4.70
- pIC50 [6]: 4.70
- pIC50 [7]: 4.70
- pIC50 [8]: 4.70
- pIC50 [9]: 4.70
- pIC50 [10]: 4.70
- pIC50 [11]: 4.70
- pIC50 [12]: 4.83
- pIC50 [13]: 4.75
- pIC50 [14]: 4.70
- pIC50 [15]: 4.70
- pIC50 [16]: 4.70
- pIC50 [17]: 4.70
- pIC50 [18]: 4.70
- pIC50 [19]: 4.70
- pIC50 [20]: 4.70
- pIC50 [21]: 4.70
- pIC50 [22]: 4.70
- pIC50 [23]: 4.70
- pIC50 [24]: 4.70
- pIC50 [25]: 4.70
- pIC50 [26]: 4.70
- pIC50 [27]: 4.70
- pIC50 [28]: 4.70
- pIC50 [29]: 4.70
- pIC50 [30]: 4.70
- pIC50 [31]: 4.70
- pIC50 [32]: 4.70
- pIC50 [33]: 4.70
- pIC50 [34]: 4.70
- pIC50 [35]: 4.91
- pIC50 [36]: 4.70
- pIC50 [37]: 4.70
- pIC50 [38]: 4.70
- pIC50 [39]: 4.70
- pIC50 [40]: 4.71
- pIC50 [41]: 4.70
- pIC50 [42]: 4.70
- pIC50 [43]: 4.70
- pIC50 [44]: 4.70
- pIC50 [45]: 4.70
- pIC50 [46]: 4.70
- pIC50 [47]: 4.70
- pIC50 [48]: 4.70
- pIC50 [49]: 4.70
- pIC50 [50]: 4.70
- pIC50 [51]: 4.70
- pIC50 [52]: 4.70
- pIC50 [53]: 4.70
- pIC50 [54]: 4.70
- pIC50 [55]: 4.70
- pIC50 [56]: 4.70
- pIC50 [57]: 4.70
- pIC50 [58]: 4.70
- pIC50 [59]: 4.70
- pIC50 [60]: 4.70
- pIC50 [61]: 4.70
- pIC50 [62]: 4.70
